Patent US20120302636A1, “METHOD OF TREATING A DISORDER ASSOCIATED WITH MTP” (priority 2009, published 2012)

Tests used:
[1] = Example 9: caloric/food intake and appetite; format: in vivo, human; settings: 3.5 mg BID, Day 10/11
Method: (§1) The study enrolled 16 obese male subjects (18-65 years of age (inclusive), with a body mass index (BMI) >30.0 kg/m^2 and <40.0 kg/m^2) who participated in two treatment periods. During Period 1, 8 subjects were randomized to receive 3.5 mg of the compound of formula (I), and 8 subjects were randomized to receive placebo. The compound of formula (I) or placebo was administered twice daily (BID), 30 minutes after the start of breakfast and dinner, for 10 days. All subjects were discharged from the clinic at the end of Period 1 for a 9±2 day discharge period. Subjects then returned for treatment during Period 2, in which (i) the group previously receiving the compound of formula (I) now received placebo, and (ii) the group previously receiving placebo now received the compound of formula (I), in accordance with the protocol described above.
A secondary objective of this study was to examine the effects on caloric/food intake and appetite. Therefore, other secondary PD endpoints in this study included caloric intake and meal weight consumed on Day 10 of each period, as well as visual analog scale (VAS) assessments of hunger, prospective consumption, and fullness on Day 10/11 of each period. VAS assessments of thirst and nausea on Day 10/11 of each period were part of the exploratory analysis.

[2] = Example 6: pharmacokinetics; format: in vivo, human; settings: 5 to 20 mg QD and BID, healthy males; generally BLQ
Source text: Originally, the study was planned as 4 sequential cohorts of healthy male Caucasian subjects (Cohorts 1 to 4) followed by a cohort of male Caucasian patients with elevated triglycerides (HTG patients, Cohort 5). An additional cohort of healthy male Caucasian subjects (Cohort 4.1) was enrolled into the study (6 cohorts in total). The cohorts were as follows: Cohorts 1 to 4.1 had healthy Caucasian males, aged 18-45 years with a body weight of 60-100 kg and body mass index (BMI) between 19-28 kg/m^2 at screening and fasting triglycerides less than 1.69 mmol/L (less than 150 mg/dL) at the screening visit and Day-3. Cohort 5 had Caucasian males, aged 18-50 years with a body weight of 60-115 kg and BMI less than 35 kg/m^2 at screening and with elevated fasting triglycerides (TG≧1.69 mmol/L and <5.62 mmol/L; ≧150 mg/dL and <500 mg/dL) at the screening visit and Day-3.
The planned treatment for Cohorts 1 to 4 was twice daily administration of 5 mg, 10 mg or 15 mg the compound of formula (I)/placebo, or once daily administration of 30 mg the compound of formula (1)/placebo. […] As only the compound of formula (I) 5 mg capsules were supplied for this study, doses were administered once daily to determine the maximum tolerated dose, and the planned doses for each subsequent cohort were amended based on the safety and tolerability data obtained from the preceding cohort. The dose level and dosing schedule planned for the patients in Cohort 5 was determined by the maximum tolerated dose and dosing schedule as reported from the planned Cohorts 1 to 4.1.
Twelve healthy male Caucasian subjects were enrolled in each of Cohorts 1 to 4.1; dose cohorts were randomized in a ratio 9:3 to receive the compound of formula (I) or placebo, respectively, at the dose level associated with that cohort. Twelve male Caucasian patients with elevated triglycerides were randomized in a ratio of 8:4 to receive the compound of formula (I) or placebo, respectively, at the maximum tolerated dose level and dosing schedule.

[3] = Example 2: plasma and urine pharmacokinetics; format: in vivo, human
Method: (§2) Each tablet contained 5 mg (BID), 10 mg (QD), 20 mg (QD), or 30 mg (QD).

[4] = Example 3: repeated dose study of tablets 1 or 2 mg BID, safety
Method: The subjects were divided into two dosing groups and within each dosing group, the subjects were divided as follows: 6 subjects received the compound of formula (I) and 3 subjects received placebo.
For the determination of plasma concentrations of the compound of formula (I) and metabolite M1 in this study, the bioanalytical method achieved a sensitivity (LLOQ) of 0.3 ng/mL. Adverse event (AE) information was collected from each subject.

[5] = tested on: gut hormone (GLP-1 active, PYY total, GIP total) levels; experiment: Example 9: gut hormone levels in obese male subjects; format: in vivo, human; settings: for increase in GLP-1 active compared with placebo / increase in PYY total compared with placebo: 4 hours after dinner
Method: as §1
The primary objective of this study was to examine the change in gut hormone levels. The co-primary endpoints were trough gut hormone (glucagon-like peptide 1 (GLP-1) active, peptide tyrosine tyrosine (PYY) total, and gastric inhibitory polypeptide (GIP) total) levels on Day 10 in each treatment period and the trough gut hormone profile throughout the study. On Day 10 of each treatment period, statistically significant mean increases in GLP-1 active (60%) and PYY total (43%) were observed during administration of the compound of formula (I) compared with placebo, whereas no change in GIP total relative to placebo was found.

[6] = Example 2: repeated oral dose study of tablets QD or BID, safety; format: in vivo, human
Method: as §2

[7] = 10, 20, 30 mg QD, initial dose Day 1

SMILES: CCOC(=O)C(COC(=O)Cc1ccc(NC(=O)c2ccccc2-c2ccc(C(F)(F)F)cc2)c(C(=O)N(C)C)c1)(C(=O)OCC)c1ccccc1 [compound of formula (I), diethyl 2-((2-(3-(dimethylcarbamoyl)-4-(4′-(trifiuoromethyl)biphenyl-2-ylcarboxamido)phenyl)acetoxy)methyl)-2-phenyl malonate]
- caloric intake, meal weight consumed, VAS of hunger, prospective consumption, fullness, thirst, nausea [1]: no statistically significant treatment differences
- plasma concentrations of the compound of formula (I) [2]: < 3 ng/mL
- subjects with Cmin detected sporadically ([3]; 5 mg BID): 4 of 6 subjects
- Cmin of the compound of formula (I) ([3]; 10 mg QD, Day 2 to 14): below the limit of quantization
- subjects with Cmin detected sporadically ([3]; 20 mg QD): 1 of 6 subjects
- subjects with Cmin detected sporadically ([3]; 30 mg QD): 4 of 6 subjects
- AUC0-24hr dose proportionality [3, 7]: greater than dose-proportional
- Cmax dose proportionality [3, 7]: greater than dose-proportional
- plasma compound of formula (I) ([3]; after initial dose on Day 1, all groups): quantifiable
- compound in urine ([3]; all groups): not quantifiable in urine
- Cmin of the compound of formula (I) ([3]; all subjects): less than 3 ng/mL
- Cmax and AUC0-24hr dose proportionality ([3]; final dose on Day 14): dose-proportional
- subjects with adverse events (incidence) ([4]; 1 mg BID): 66.7%
- subjects with adverse events (incidence) ([4]; 2 mg BID): 50.0%
- fat-soluble vitamins (vitamin A, 25-OH vitamin D, and vitamin E) ([4]; 1 and 2 mg BID): no decrease
- severity of all adverse events ([4]; 1 and 2 mg BID): mild
- death or serious adverse events ([4]; 1 or 2 mg BID tablets, 14 days): No death or other serious adverse events occurred
- subjects with adverse events (incidence) ([4]; active group, 12 subjects): 58.3%
- incidence of diarrhea ([4]; overall compound group): 25.0%
- incidence of gastrointestinal disorders (SOC) ([4]; overall compound group): 41.7%
- incidence of investigations (SOC) ([4]; overall compound group): 33.3%
- incidence of loose stools ([4]; overall compound group): 25.0%
- tolerable dose ([4]; twice daily for 14 days, tablets): up to 2 mg
- mean increase in trough GLP-1 active compared with placebo ([5]; 3.5 mg BID, Day 10): 60%
- mean increase in trough PYY total compared with placebo ([5]; 3.5 mg BID, Day 10): 43%
- trough GIP total relative to placebo ([5]; 3.5 mg BID, Day 10): no change
- increase in GLP-1 active compared with placebo ([5]; Day 2): 38%
- increase in PYY total compared with placebo ([5]; Day 2): 44%
- increase in GLP-1 active compared with placebo ([5]; Day 9): 71%
- increase in PYY total compared with placebo ([5]; Day 9): 42%
- GIP total relative to placebo ([5]; 4 hours post-dinner, Day 2 and Day 9): No statistically significant differences
- gut hormone AUC profiles around breakfast ([5]; Day 2, -0.5 to 3.5 hours relative to dosing): no significant changes
- GIP total profile ([5]; Day 2 or Day 9): No significant changes
- average increase in GLP-1 active around breakfast ([5]; Day 9): 38%
- average increase in PYY total around breakfast ([5]; Day 9): 51%
- decrease in AUC for GIP total compared with placebo ([5]; Day 9, around breakfast): 17%
- increase in AUC for GLP-1 active compared with placebo ([5]; Day 9, around breakfast): 31%
- increase in AUC for PYY total compared with placebo ([5]; Day 9, around breakfast): 39%
- average increase in trough PYY total ([5]; days 2 through 11): 63%
- average increase in trough GIP total ([5]; days 3, 5 and 11): 24%
- average increase in trough GLP-1 active ([5]; days 3 through 11): 45%
- incidence of diarrhea ([6]; 5 mg BID): 100%
- incidence of moderate diarrhea ([6]; 5 mg BID): 66.7%
- incidence of vomiting (moderate) ([6]; 5 mg BID): 16.7%
- number of diarrhea events ([6]; 5 mg BID): 7
- subjects with adverse events (incidence) ([6]; 5 mg BID): 100.0%
- suitability as clinical dose for hyperlipidemic patients ([6]; 5 mg BID): inappropriate as a clinical dose
- subjects with adverse events (incidence) ([6]; 10 mg QD): 50.0%
- incidence of diarrhea ([6]; 20 mg QD): 16.7%
- incidence of moderate diarrhea ([6]; 20 mg QD): 16.7%
- number of diarrhea events ([6]; 20 mg QD): One
- subjects with adverse events (incidence) ([6]; 20 mg QD): 66.7%
- incidence of diarrhea ([6]; 30 mg QD): 66.7%
- incidence of moderate diarrhea ([6]; 30 mg QD): 50.0%
- number of diarrhea events ([6]; 30 mg QD): 4
- subjects with adverse events (incidence) ([6]; 30 mg QD): 66.7%
- vitamin E levels ([6]; 30 mg QD): decreased on Day 7
- subjects with queasiness ([6]; 30 mg dose): 2 of 6 subjects
- incidence of infection and infestation (SOC) ([6]; active group): 4.2%
- incidence of investigation (SOC) ([6]; active group): 20.8%
- incidence of metabolism and nutrition disorder (SOC) ([6]; active group): 4.2%
- incidence of gastrointestinal disorder (SOC) ([6]; active group, 24 subjects): 58.3%
- incidence of CK increased ([6]; overall compound group): 12.5%
- incidence of abdomen enlarged feeling ([6]; overall compound group): 20.8%
- incidence of diarrhea ([6]; overall compound group): 45.8%
- incidence of loose stools ([6]; overall compound group): 20.8%
- incidence of stomach discomfort ([6]; overall compound group): 25.0%
- number of diarrhea events ([6]; overall compound group): Twelve
- subjects with adverse events (incidence) ([6]; overall compound group, 24 subjects): 70.8%
- fat-soluble vitamin levels ([6]; remaining groups (10 mg QD, 20 mg QD, 5 mg BID)): did not decrease
- death or serious adverse events ([6]; tablets, 14 days): No death or other serious adverse events occurred
